According to patent publication US6204293A, “Inhibitors of protein isoprenyl transferases” (University of Pittsburgh, priority 1998, dated 2001):
Where a name gives a salt, the structure may show the parent alone.

Biological target: T1, Rat brain protein farnesyltransferase (Rattus norvegicus, UniProt Q02293+Q04631)
T1 construct: Rat brain protein farnesyltransferase activity is measured; from tissue; host or cells: rat brain
Experiment: % inhibition of farnesylation, scintillation proximity assay with biotin-K Ras B fragment
Type: biochemical
Details: Table 1; 1 × 10^-5 M
Text: The ability of the compounds of the invention to inhibit protein farnesyltransferase or protein geranylgeranyltransferase can be measured according to the method of Moores, et al., J. Biol. Chem. 266: 14603 (1991) or the method of Vogt, et al., J. Biol. Chem. 270:660-664 (1995). In addition, procedures for determination of the inhibition of farnesylation of the oncogene protein Ras are described by Goldstein, et al., J. Biol. Chem., 266:15575-15578 (1991) and by Singh in U.S. Pat. No. 5,245,061.
In addition, in vitro inhibition of protein farnesyltransferase may be measured by the following procedure. Rat brain protein farnesyltransferase activity is measured using an Amersham Life Science commercial scintillation proximity assay kit and substituting a biotin-K Ras B fragment (biotin-[…]CO2 H), 0.1 mM final concentration, for the biotin-lamin substrate provided by Amersham. The enzyme is purified according to Reiss, Y., et al., Cell, 62: 81-88 (1990), utilizing steps one through three.
The % inhibition of protein farnesyltransferase was determined for representative compounds of the invention.

T1 sequence (Q02293 whole entry, one chain of several): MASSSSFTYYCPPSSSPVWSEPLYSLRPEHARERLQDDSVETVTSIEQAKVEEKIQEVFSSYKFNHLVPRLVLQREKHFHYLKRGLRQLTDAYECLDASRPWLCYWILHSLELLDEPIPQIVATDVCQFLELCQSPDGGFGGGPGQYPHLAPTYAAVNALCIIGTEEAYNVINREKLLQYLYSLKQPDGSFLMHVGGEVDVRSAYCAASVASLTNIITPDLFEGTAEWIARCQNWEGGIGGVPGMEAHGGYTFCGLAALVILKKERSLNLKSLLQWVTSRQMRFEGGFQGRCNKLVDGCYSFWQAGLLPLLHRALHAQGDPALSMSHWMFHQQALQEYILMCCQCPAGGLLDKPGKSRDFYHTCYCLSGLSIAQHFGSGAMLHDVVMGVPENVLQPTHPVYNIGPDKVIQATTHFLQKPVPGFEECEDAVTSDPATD

Row | % inhibition at 1 × 10^-5 M | SMILES
1 | 86% | CSCC[C@H](NC(=O)c1ccc(CNc2cc[nH]n2)cc1-c1ccccc1)C(=O)O [Example 370]
2 | 66% | CSCC[C@H](NC(=O)c1ccc(CNc2nnc(C)s2)cc1-c1ccccc1)C(=O)O [Example 371]
3 | 69% | CSCC[C@H](NC(=O)c1ccc(CNc2cc(C)on2)cc1-c1ccccc1)C(=O)O [Example 372]
4 | 76% | CSCC[C@H](NC(=O)c1ccc(CNc2cc(C)ns2)cc1-c1ccccc1)C(=O)O [Example 373]
5 | 61% | CSCC[C@H](NC(=O)c1ccc(CNc2nccs2)cc1-c1ccccc1)C(=O)O [Example 374]
6 | 71% | CSCC[C@H](NC(=O)c1ccc(CNCCCN2CCOCC2)cc1-c1ccccc1)C(=O)O [Example 377]
7 | 79% | CSCC[C@H](NC(=O)c1ccc(CNc2cc(C(C)(C)C)[nH]n2)cc1-c1ccccc1)C(=O)O [Example 381]

Same assay, conditions: Table 2; 1 × 10^-6 M

Row | % inhibition at 1 × 10^-6 M | SMILES
8 | 99% | CCSC[C@H](CC1CCCCC1)NCc1ccc(C(=O)N[C@@H](CCSC)C(=O)O)c(-c2ccccc2C)c1 [Example 403]
9 | 95% | CSCC[C@H](NC(=O)c1ccc(CN(Cc2ccccc2)c2ccccc2)cc1-c1ccccc1C)C(=O)O [Example 406]
10 | 81% | Cc1ccccc1-c1cc(CCc2ccccc2Oc2ccccc2)ccc1C(=O)N[C@@H](CC[S+](C)[O-])C(=O)O (stereo partly shown) [Example 456]
11 | 88% | Cc1ccccc1-c1cc(CCc2cccc(Oc3ccccc3)c2)ccc1C(=O)N[C@@H](CC[S+](C)[O-])C(=O)O (stereo partly shown) [Example 460]
12 | 91% | Cc1ccccc1-c1cc(CCc2ccc(Oc3ccccc3)cc2)ccc1C(=O)N[C@@H](CC[S+](C)[O-])C(=O)O (stereo partly shown) [Example 463]
13 | 92% | CSCC[C@H](NC(=O)c1ccc(/C=C/c2ccc3ccccc3c2)cc1-c1ccccc1C)C(=O)O [Example 465]
14 | 93% | CSCC[C@H](NC(=O)c1ccc(/C=C/c2cccc3ccccc23)cc1-c1ccccc1C)C(=O)O [Example 466]
15 | 96% | CSCC[C@H](NC(=O)c1ccc(CCc2ccc3ccccc3c2)cc1-c1ccccc1C)C(=O)O [Example 468]
16 | 92% | CSCC[C@H](NC(=O)c1ccc(C=CCc2ccccc2)cc1-c1ccccc1C)C(=O)O [Example 469]

The next lines start with the compound.

Row | SMILES | % inhibition at 1 × 10^-6 M
17 | CSCC[C@H](NC(=O)c1ccc(CCc2ccccc2-c2ccccc2)cc1-c1ccccc1C)C(=O)[O-].[Li+] [Example 452] | 96%
18 | CSCC[C@H](NC(=O)c1ccc(C=Cc2ccccc2Oc2ccccc2)cc1-c1ccccc1C)C(=O)[O-].[Li+] [Example 453] | 90%
19 | CSCC[C@H](NC(=O)c1ccc(C=Cc2ccccc2Cc2ccccc2)cc1-c1ccccc1C)C(=O)[O-].[Li+] [Example 457] | 92%
20 | CSCC[C@H](NC(=O)c1ccc(CCc2cccc3ccccc23)cc1-c1ccccc1C)C(=O)[O-].[Li+] [Example 467] | 97%
21 | CSCC[C@H](NC(=O)c1ccc(CCCc2ccc3ccccc3c2)cc1-c1ccccc1C)C(=O)[O-].[Li+] [Example 470] | 95%

Same assay, conditions: Table 3; 1 × 10^-7 M

Row | SMILES | % inhibition at 1 × 10^-7 M
22 | CSCC[C@H](NC(=O)c1ccc(CCc2ccccc2Oc2ccccc2)cc1-c1ccccc1C)C(=O)[O-].[Li+] [Example 455] | 83%
23 | CSCC[C@H](NC(=O)c1ccc(CCc2ccccc2Cc2ccccc2)cc1-c1ccccc1C)C(=O)O [Example 458] | 87%
24 | CSCC[C@H](NC(=O)c1ccc(CCc2cccc(Oc3ccccc3)c2)cc1-c1ccccc1C)C(=O)[O-].[Li+] [Example 459] | 92%
25 | CSCC[C@H](NC(=O)c1ccc(CCc2ccc(C3CCCCC3)cc2)cc1-c1ccccc1C)C(=O)[O-].[Li+] [Example 461] | 93%
26 | CSCC[C@H](NC(=O)c1ccc(CCc2ccc(Oc3ccccc3)cc2)cc1-c1ccccc1C)C(=O)[O-].[Li+] [Example 462] | 91%

Same assay, conditions: read-out: % inhibition at 1 × 10^-6 M; Table 2; 1 × 10^-6 M

Row | inhibition at 1 µM | SMILES
27 | 98% | CSCC[C@H](NC(=O)c1ccc(COCCC23CC4CC(CC(C4)C2)C3)cc1-c1ccccc1C)C(=O)O [Example 404, 4-[2-(1-adamantane)ethoxy]methyl-2(2-methylphenyl)benzoylmethionine lithium salt.]
28 | 98% | CSCC[C@H](NC(=O)c1ccc(COCCCC2CCCCC2)cc1-c1ccccc1C)C(=O)O [Example 405, 4-(3-cyclohexylpropoxy)methyl-2-(2-methylphenyl)benzoylmethionine lithium salt.]
29 | 96% | CSCC[C@H](NC(=O)c1ccc(COCc2ccc(CN(C)C)o2)cc1-c1ccccc1C)C(=O)O [Example 435, N-[4-(5-N,N-dimethylaminomethylfuran-2-ylmethoxymethyl)-2-(2-methylphenyl)benzoyl]methionine]

Same assay, conditions: read-out: % inhibition at 1 × 10^-7 M

Row | SMILES | inhibition at 0.1 µM
30 | CSCC[C@H](NC(=O)c1ccc(COCc2ccc(Br)o2)cc1-c1ccccc1C)C(=O)O [Example 434, N-[4-(5-Bromofuran-2-ylmethoxymethyl)-2-(2-methylphenyl)benzoyl]methionine lithium salt] | 93%
31 | CSCC[C@H](NC(=O)c1ccc(COCc2ccc(-c3cccc(F)c3)o2)cc1-c1ccccc1C)C(=O)O [Example 436, N-[4-(5-(3-fluorophenyl)furan-2-ylmethoxymethyl)-2-(2-methylphenyl)benzoyl]methionine lithium salt] | 89%
32 | CSCC[C@H](NC(=O)c1ccc(COCc2ccc(-c3ccccc3F)o2)cc1-c1ccccc1C)C(=O)O [Example 437, N-[4-(5-(2-fluorophenyl)furan-2-ylmethoxymethyl)-2-(2-methylphenyl)benzoyl]methionine lithium salt] | 89%
33 | CSCC[C@H](NC(=O)c1ccc(COCc2ccc(-c3ccccc3C(F)(F)F)o2)cc1-c1ccccc1C)C(=O)O [Example 438, N-[4-(5-(2-trifluoromethylphenyl)furan-2-ylmethoxymethyl)-2-(2-methylphenyl)benzoyl]methionine lithium salt] | 90%
34 | CSCC[C@H](NC(=O)c1ccc(COCc2ccc(-c3cccc([N+](=O)[O-])c3)o2)cc1-c1ccccc1C)C(=O)O [Example 440, N-[4-(5-(3-nitrophenyl)furan-2-ylmethoxymethyl)-2-(2-methylphenyl)benzoyl]methionine lithium salt] | 92%
35 | CSCC[C@H](NC(=O)c1ccc(COCc2ccc(-c3cccc(C(F)(F)F)c3)o2)cc1-c1ccccc1C)C(=O)O [Example 441, N-[4-(5-(3-trifluoromethylphenyl)furan-2-ylmethoxymethyl)-2-(2-methylphenyl)benzoyl]methionine lithium salt] | 91%
36 | COc1cccc(-c2ccc(COCc3ccc(C(=O)N[C@@H](CCSC)C(=O)O)c(-c4ccccc4C)c3)o2)c1 [Example 442, N-[4-(5-(3-methoxyphenyl)furan-2-ylmethoxymethyl)-2-(2-methylphenyl)benzoyl]methionine lithium salt] | 88%
37 | CSCC[C@H](NC(=O)c1ccc(COCc2ccc(-c3ccc(C(F)(F)F)cc3)o2)cc1-c1ccccc1C)C(=O)O [Example 445, N-[4-(5-(4-trifluoromethylphenyl)furan-2-ylmethoxymethyl)-2-(2-methylphenyl)benzoyl]methionine lithium salt] | 94%
38 | COc1ccc(-c2ccc(COCc3ccc(C(=O)N[C@@H](CCSC)C(=O)O)c(-c4ccccc4C)c3)o2)cc1 [Example 446, N-[4-(5-(4-methoxyphenyl)furan-2-ylmethoxymethyl)-2-(2-methylphenyl)benzoyl]methionine lithium salt] | 91%
39 | CSCC[C@H](NC(=O)c1ccc(COCc2ccc(-c3ccc(SC)cc3)o2)cc1-c1ccccc1C)C(=O)O [Example 447, N-[4-(5-(4-methylthiophenyl)furan-2-ylmethoxymethyl)-2-(2-methylphenyl)benzoyl]methionine lithium salt] | 91%
40 | CSCC[C@H](NC(=O)c1ccc(COCc2ccc(-c3ccc(C=O)cc3)o2)cc1-c1ccccc1C)C(=O)O [Example 448, N-[4-(5-(4-formylphenyl)furan-2-ylmethoxymethyl)-2-(2-methylphenyl)benzoyl]methionine lithium salt] | 92%
41 | CSCC[C@H](NC(=O)c1ccc(COCc2ccc(-c3ccc(C(C)=O)cc3)o2)cc1-c1ccccc1C)C(=O)O [Example 449, N-[4-(5-(4-acetylphenyl)furan-2-ylmethoxymethyl)-2-(2-methylphenyl)benzoyl]methionine lithium salt] | 91%

Same assay, conditions: read-out: % inhibition at 1 × 10^-7 M; Table 3; 1 × 10^-7 M

Row | inhibition at 0.1 µM | SMILES
42 | 97% | CSCC[C@H](NC(=O)c1ccc(COCc2ccc(-c3ccc(Cl)cc3)o2)cc1-c1ccccc1C)C(=O)O [Example 443, N-[4-(5-(4-chlorophenyl)furan-2-ylmethoxmethyl)-2-(2-methylphenyl)benzoyl]methionine lithium salt]
43 | 96% | CSCC[C@H](NC(=O)c1ccc(COCc2ccc(-c3ccc(F)c(Cl)c3)o2)cc1-c1ccccc1C)C(=O)O [Example 450, N-[4-(5-(3-chloro-4-fluorophenyl)furan-2-ylmethoxymethyl)-2-(2-methylphenyl)benzoyl]methionine lithium salt]
